The values that follow come from patent US9522924B1, “Pyridone derivatives as acid secretion inhibitors and process for preparation thereof” (Emcure Pharmaceuticals Limited, priority 2012, dated 2016).

By IC50 is commonly meant the concentration needed to halve the response being measured.

Like-named read-outs stand apart in the source and are kept apart here.

Assay [1] deals with T1, H^+/K^+ ATPase (Sus scrofa, UniProt P19156).
T1 construct: using an enzyme isolated from the rabbit or porcine (pig) fundus; from tissue; host or cells: porcine (pig) gastric fundus
To be noted: literature value (Keeling et al., Biochem Pharmacol 1985); read-out: IC50 (Pig-Porcine); cited from earlier work.

Assay [2] concerns the target T2, H^+/K^+ ATPase (Oryctolagus cuniculus, UniProt P27112).
T2 construct: using an enzyme isolated from the rabbit or porcine (pig) fundus; from tissue; host or cells: rabbit gastric fundus
Particulars: literature value (Scott and Sundell, Eur. J Pharmacol 1985); read-out: IC50 (Rabbit); cited from earlier work.

Assay [3] concerns Indomethacin-induced gastric ulceration. As to the kind of experiment: Indomethacin-induced gastric ulceration model in rats. It is filed as in vivo, female albino Wistar rats. To be noted: oral, 1 hour before indomethacin 30 mg/kg p.o.; for ED (effect similar to omeprazole 10 mg/kg): Rattus norvegicus, read-out: Indomethacin-induced ulcer model (dose @ which effect is similar to 10mpk of omeprazole). As for the experimental part:
The anti-ulcer efficacy of various test compounds (I-A-1 to I-A-11, I-B-1 to I-B-3) was assessed in Indomethacin—induced gastric ulceration model in female albino Wistar rats (Bhattacharya S., Banerjee D., Bauri A. K., Chattopadhyay S., Bandyopadhyay S. K. Healing property of the piper betelphenol, allylpyrocatechol against indomethacin-induced stomach ulceration and mechanism of action. World J Gastroenterol., 13(27): 3705-13, 2007; Lee A. Animal models of gastroduodenal ulcer disease. Bailliere's Best Pract. Res. Clinic Gastroenterol., 14(1): 75-96, 2000). The test compounds were administered orally at various doses (0.2, 0.4, 0.8 and 1.6 mg/kg) in comparison to Omeprazole (10 mg/kg) as standard comparator.
Experiments were conducted in overnight fasted healthy female albino Wistar rats maintained at controlled environmental conditions of temperature and humidity with water given ad libitum. Non-steroidal anti-inflammatory drug (NSAID), Indomethacin (30 mg/kg, p.o.) was used to induce gastric ulcer (treatment groups) with a comparative group without indomethacin treatment (negative group). Indomethacin was administered to treatment groups 1 hour after oral treatment with Vehicle (1% CMC), various doses of test compounds (EPPIs) and Omeprazole (10 mg/kg). After 4-6 hours after indomethacin administration, the animals were sacrificed by cervical dislocation and their stomach was dissected out. Various parameters like macroscopic ulcer index, gastric mucus content and gastric acid pH measurements were undertaken. The rat stomachs were cut opened along the greater curvature for macroscopic determination of ulcer index.

The target in assay [4] is T2, H^+/K^+ ATPase. Description: H+K+-ATPase assay (p-NPP to p-NP), enzyme from rabbit fundus. The class given is biochemical. To be noted: pH 6.0, 30 min pre-incubation at 37° C. As for the experimental part: (§1) H+K+-ATPase Assay Protocol Description:
(§2) Evaluation of the effects of compounds on the activity of the H^+/K^+ ATPase activity was quantified by measuring the formation of para-nitrophenol (p-NP) from para-nitrophenol phosphate (p-NPP) using an enzyme isolated from the rabbit or porcine (pig) fundus.
(§3) The test compound, reference compound or water (control) are pre-incubated for 30 min at 37° C. with the enzyme (5 μg) in a buffer containing 40 mM Hepes/Tris (pH 6.0), 20 mM KCl, 5 mM MgCl2 and 1 mM ouabain. The enzymatic reaction was then initiated by the addition of 2 mM p-NPP.
(§4) The absorbance was measured immediately at k=405 nm using a microplate reader (EnVision, Perkin Elmer). This measurement at t=0 was also used to verify any compound interference with the spectrophotometric detection at the selected wavelength.
(§5) Thereafter, the mixture was incubated for 15 min at 37° C., after which time the reaction is stopped by addition of 0.5 M NaOH and a second measurement is made at the same wavelength (t=15). The enzyme activity is determined by subtracting the signal measured at t=0 from that measured at t=15. The results are expressed as a percent inhibition of the control enzyme activity.
(§6) The standard inhibitory reference compound is omeprazole,
(§7) Bibliographic reference: Dantzig, H., Minor, P. L. Garrigus, J. L., Fukuda, D. S. and Mynderse, J. S., Studies of the mechanism of action of A80915A, a semi-naphtolquinone natural product, as an inhibitor of gastric (H+/K+)-ATPase, Biochem. Pharmacol. (1991), 42: 2019.
(§8) Assay volume and format: 250 μl in 96-well plate
(§9) Compound addition: [100×] solution in solvent, then [10×] solution in water Maximum tolerable DMSO concentration: 1%

In assay [5] the target is T1, H^+/K^+ ATPase. Description: H+K+-ATPase assay (p-NPP to p-NP), enzyme from porcine (pig) fundus. The class given is biochemical. Particulars: for IC50: enzyme from porcine fundus, pH 6.0, 30 min pre-incubation at 37° C. As for the experimental part: as §1, §2, §3, §4, §5, §6, §7, §8, §9

T1 sequence (P19156 2-1034 limits assumed): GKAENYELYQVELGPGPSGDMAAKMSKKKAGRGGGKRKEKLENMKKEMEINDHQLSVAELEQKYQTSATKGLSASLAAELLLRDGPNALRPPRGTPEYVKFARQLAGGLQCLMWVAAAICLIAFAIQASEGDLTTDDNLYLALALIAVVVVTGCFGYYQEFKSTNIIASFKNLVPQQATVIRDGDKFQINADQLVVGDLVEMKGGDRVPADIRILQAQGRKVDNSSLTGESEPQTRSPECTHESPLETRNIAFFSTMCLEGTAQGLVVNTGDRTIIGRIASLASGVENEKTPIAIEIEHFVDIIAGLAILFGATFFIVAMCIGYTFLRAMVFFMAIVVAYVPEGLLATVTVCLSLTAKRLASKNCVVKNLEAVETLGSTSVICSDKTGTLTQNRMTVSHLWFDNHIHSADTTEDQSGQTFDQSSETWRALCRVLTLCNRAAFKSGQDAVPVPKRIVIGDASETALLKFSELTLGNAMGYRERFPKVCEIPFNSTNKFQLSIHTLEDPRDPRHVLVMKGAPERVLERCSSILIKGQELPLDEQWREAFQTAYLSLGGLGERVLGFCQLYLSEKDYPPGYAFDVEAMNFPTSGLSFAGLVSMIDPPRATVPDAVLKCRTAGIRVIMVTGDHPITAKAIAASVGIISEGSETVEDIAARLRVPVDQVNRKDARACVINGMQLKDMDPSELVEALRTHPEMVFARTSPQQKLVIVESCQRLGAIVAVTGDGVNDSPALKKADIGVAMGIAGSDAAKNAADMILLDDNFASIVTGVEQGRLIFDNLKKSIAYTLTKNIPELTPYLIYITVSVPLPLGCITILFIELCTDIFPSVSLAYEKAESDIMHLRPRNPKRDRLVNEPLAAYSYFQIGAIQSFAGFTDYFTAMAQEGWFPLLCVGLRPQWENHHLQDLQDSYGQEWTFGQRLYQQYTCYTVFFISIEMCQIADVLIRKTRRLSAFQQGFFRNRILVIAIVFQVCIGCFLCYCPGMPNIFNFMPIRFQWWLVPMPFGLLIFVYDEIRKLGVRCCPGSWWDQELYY
T1 sequence (P18434 whole entry partner): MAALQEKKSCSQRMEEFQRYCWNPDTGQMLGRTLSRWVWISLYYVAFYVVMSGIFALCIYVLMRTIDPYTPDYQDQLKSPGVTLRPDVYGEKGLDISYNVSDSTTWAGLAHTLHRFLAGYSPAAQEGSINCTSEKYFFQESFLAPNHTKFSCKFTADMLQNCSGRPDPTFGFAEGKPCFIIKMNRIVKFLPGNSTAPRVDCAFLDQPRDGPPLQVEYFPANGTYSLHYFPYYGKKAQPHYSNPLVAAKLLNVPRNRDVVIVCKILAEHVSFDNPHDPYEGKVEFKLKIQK
T2 sequence (P27112 2-1035 limits assumed): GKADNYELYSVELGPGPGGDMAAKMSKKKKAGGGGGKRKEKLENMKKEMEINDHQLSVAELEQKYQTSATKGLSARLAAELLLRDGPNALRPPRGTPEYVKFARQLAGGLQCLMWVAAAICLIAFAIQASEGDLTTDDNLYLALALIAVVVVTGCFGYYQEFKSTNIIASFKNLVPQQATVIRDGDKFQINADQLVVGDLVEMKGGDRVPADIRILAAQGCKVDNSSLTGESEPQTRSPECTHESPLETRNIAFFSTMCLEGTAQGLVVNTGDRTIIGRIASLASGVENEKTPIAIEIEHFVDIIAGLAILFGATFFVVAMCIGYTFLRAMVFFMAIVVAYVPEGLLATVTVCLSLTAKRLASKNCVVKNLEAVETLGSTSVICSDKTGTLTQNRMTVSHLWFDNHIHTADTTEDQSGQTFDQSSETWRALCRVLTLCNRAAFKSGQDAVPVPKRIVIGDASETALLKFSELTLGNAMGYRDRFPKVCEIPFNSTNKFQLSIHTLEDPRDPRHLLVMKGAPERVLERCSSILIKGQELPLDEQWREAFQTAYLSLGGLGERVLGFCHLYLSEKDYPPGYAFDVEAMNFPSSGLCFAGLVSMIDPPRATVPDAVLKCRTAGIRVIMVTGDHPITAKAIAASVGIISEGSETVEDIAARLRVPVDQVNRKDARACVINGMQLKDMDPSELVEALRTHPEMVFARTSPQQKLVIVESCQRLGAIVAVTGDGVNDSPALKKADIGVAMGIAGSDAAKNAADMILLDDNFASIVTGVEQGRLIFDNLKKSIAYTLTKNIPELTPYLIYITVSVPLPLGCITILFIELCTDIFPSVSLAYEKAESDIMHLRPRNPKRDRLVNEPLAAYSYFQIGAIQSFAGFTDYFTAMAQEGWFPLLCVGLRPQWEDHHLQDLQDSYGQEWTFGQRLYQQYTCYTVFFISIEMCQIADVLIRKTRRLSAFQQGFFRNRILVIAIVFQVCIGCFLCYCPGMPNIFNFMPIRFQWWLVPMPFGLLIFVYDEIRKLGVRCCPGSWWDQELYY
T2 sequence (P18597 whole entry partner): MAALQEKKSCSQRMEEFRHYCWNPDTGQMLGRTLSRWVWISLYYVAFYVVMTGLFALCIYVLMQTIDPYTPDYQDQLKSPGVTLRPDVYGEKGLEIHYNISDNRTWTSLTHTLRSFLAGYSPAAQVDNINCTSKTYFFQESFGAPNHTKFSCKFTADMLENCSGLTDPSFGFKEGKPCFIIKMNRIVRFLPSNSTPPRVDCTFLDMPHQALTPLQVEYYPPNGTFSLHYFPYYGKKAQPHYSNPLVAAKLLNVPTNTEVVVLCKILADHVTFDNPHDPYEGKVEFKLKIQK

As for `COc1ccc2[nH]c([S+]([O-])Cc3ncc(C)c(OC)c3C)nc2c1` (centres unmarked) [Omeprazole, omeprazole], the results for the IC50 at H^+/K^+ ATPase [1] and on H^+/K^+ ATPase [2] were 3900 nM and 4000 nM, respectively.
For the compound `COc1ccc2[nH]c(-n3ccc(=O)c(OC)c3CSSCc3c(OC)c(=O)ccn3-c3nc4cc(OC)ccc4[nH]3)nc2c1` [I-A-7, 2-((2-((1,4-dihydro-3-methoxy-1-(5-methoxy-1H-benzo[d]imidazol-2-yl)-4-oxopyridin-2-yl)methyl)disulfinyl)methyl)-3-methoxy-1-(5-methoxy-1H-benzo[d]imidazol-2-yl)pyridin-4(1H)-one], in assay [3], the ED (effect similar to omeprazole 10 mg/kg) stood at 1.6 mg/kg. Further, the results for the IC50 against H^+/K^+ ATPase [4] and against H^+/K^+ ATPase [5] were 1200 nM and 4700 nM, respectively.
The corresponding values for `COc1ccc2[nH]c(-n3ccc(=O)c(OC)c3CSSCc3c(OC)c(=O)ccn3-c3nc4nc(OC)ccc4[nH]3)nc2n1` [I-B-2] are 1.6 mg/kg, 2000 nM and 8400 nM.
In the same order, the values of `COc1c(CSSCc2c(OC)c(=O)ccn2-c2nc3cc(C)ccc3[nH]2)n(-c2nc3cc(C)ccc3[nH]2)ccc1=O` [I-A-5] are 1.6 mg/kg, 1300 nM and 2300 nM.
As to `Cc1cn(-c2nc3ncccc3[nH]2)c(CSSCc2c(C)c(=O)c(C)cn2-c2nc3ncccc3[nH]2)c(C)c1=O` [I-B-1, 2-((2-((1,4-dihydro-1-(1H-imidazo[4,5-b]pyridin-2-yl)-3,5-dimethyl-4-oxopyridin-2-yl)methyl)disulfinyl)methyl)-1-(1H-imidazo[4,5-b]pyridin-2-yl)-3,5-dimethylpyridin-4(1H)-one], in assay [3], the ED (effect similar to omeprazole 10 mg/kg) came to 1.6 mg/kg. Moreover, the IC50 at H^+/K^+ ATPase [4] stood at 2800 nM; at H^+/K^+ ATPase [5], 14000 nM.
The corresponding values for `COc1c(CSSCc2c(OC)c(=O)ccn2-c2nc3ccccc3[nH]2)n(-c2nc3ccccc3[nH]2)ccc1=O` [I-A-3] are 1.6 mg/kg, 1100 nM and 2000 nM.
In the case of `COc1ccc2[nH]c(-n3cc(C)c(=O)c(C)c3C[S+]([O-])[S+]([O-])Cc3c(C)c(=O)c(C)cn3-c3nc4nc(OC)ccc4[nH]3)nc2n1` (centres unmarked) [I-B-3, 2-((2-((1,4-dihydro-1-(5-methoxy-1H-imidazo[4,5-b]pyridin-2-yl)-3,5-dimethyl-4-oxopyridin-2-yl)methyl)disulfinyl)methyl)-1-(5-methoxy-1H-imidazo[4,5-b]pyridin-2-yl)-3,5-dimethylpyridin-4(1H)-one], in assay [3], the “Indomethacin-induced ulcer model (dose @ which effect is similar to 10mpk of omeprazole)” value was 1.6 mg/kg. Besides, the “percent inhibition of the control enzyme activity (printed in IC50 (Pig-Porcine) column)” value at H^+/K^+ ATPase [5] (@ 3-30 uM) was 45% @ 3-30 uM.
As for `COc1ccc2[nH]c(-n3cc(C)c(=O)c(C)c3CSSCc3c(C)c(=O)c(C)cn3-c3nc4cc(OC)ccc4[nH]3)nc2c1` [I-A-6], the results for the IC50 against H^+/K^+ ATPase [4] and against H^+/K^+ ATPase [5] were 1300 nM and 4100 nM, respectively.
Take `Cc1ccc2[nH]c(-n3cc(C)c(=O)c(C)c3CSSCc3c(C)c(=O)c(C)cn3-c3nc4cc(C)ccc4[nH]3)nc2c1` [I-A-4]: the IC50 was determined as 1600 nM on H^+/K^+ ATPase [4] and 2900 nM against H^+/K^+ ATPase [5].
As to `Cc1cn(-c2nc3cc(F)ccc3[nH]2)c(CSSCc2c(C)c(=O)c(C)cn2-c2nc3cc(F)ccc3[nH]2)c(C)c1=O` [I-A-8], in assay [3], the ED (effect similar to omeprazole 10 mg/kg) worked out at 1.6 mg/kg. Moreover, the IC50 on H^+/K^+ ATPase [4] worked out at 1200 nM; against H^+/K^+ ATPase [5], 1300 nM.
`COc1c(CSSCc2c(OC)c(=O)ccn2-c2nc3cc(OC(F)F)ccc3[nH]2)n(-c2nc3cc(OC(F)F)ccc3[nH]2)ccc1=O` [I-A-11]: the ED (effect similar to omeprazole 10 mg/kg) in assay [3] came to 1.6 mg/kg. For the same compound, the results for the IC50 at H^+/K^+ ATPase [4] and against H^+/K^+ ATPase [5] were 1500 nM and 3300 nM, respectively.
In the same order, the values of `COc1c(CSSCc2c(OC)c(=O)ccn2-c2nc3cc(C(F)(F)F)ccc3[nH]2)n(-c2nc3cc(C(F)(F)F)ccc3[nH]2)ccc1=O` [I-A-9] are 1.6 mg/kg, 1100 nM and 1700 nM.
For `O=c1ccn(-c2nc3ccccc3[nH]2)c(C[S+]([O-])[S+]([O-])Cc2cc(=O)ccn2-c2nc3ccccc3[nH]2)c1` (centres unmarked) [I-A-1, 2-((2-((1-(1H-benzo[d]imidazol-2-yl)-1,4-dihydro-4-oxopyridin-2-yl)methyl)disulfinyl)methyl)-1-(1H-benzo[d]imidazol-2-yl)pyridin-4(1H)-one], the “Indomethacin-induced ulcer model (dose @ which effect is similar to 10mpk of omeprazole)” value in assay [3] was found to be 1.6 mg/kg. The IC50 against H^+/K^+ ATPase [4] was found to be 1000 nM; at H^+/K^+ ATPase [5], 1800 nM.
For `Cc1cn(-c2nc3ccccc3[nH]2)c(CSSCc2c(C)c(=O)c(C)cn2-c2nc3ccccc3[nH]2)c(C)c1=O` [I-A-2], the ED (effect similar to omeprazole 10 mg/kg) in assay [3] is 1.6 mg/kg. The IC50 on H^+/K^+ ATPase [4] turned out to be 1000 nM; on H^+/K^+ ATPase [5], 1300 nM.
